Data on eleven compounds can be found in patent US20020110801A1, “A Method for screening compounds for the modulation of cognitive function” (priority 1998, published 2002).

Marks after values point to notes of the source that are not given here.

The test system of data set [1] is actin-based motility in dendritic spines. Nature of the data set: video time-lapse recording of dendritic spine motility (shape factor) in GFP-actin transfected hippocampal neurons, volatile anaesthetics. Format: cell-based, rat. The note with it: for Effective conc. for spine motility: calculated from concentration of saturated solution at 25° C. used as stock solution; for effect on spine shape change / spine motility in presence of the anaesthetic: clinically relevant concentrations in saline; for spine motility after the anaesthetic is removed: washout. The procedure:
To examine the influence of volatile anaesthetics on spine motility their effects on live, cultured hippocampal neurons that have been transfected with green fluorescent protein-tagged actin (GFP-actin) to render their dendritic spines visible are studied.
The following example further illustrates the employment of an assay according to the invention. First, the shape of a dendritic spine on a rat hippocampal neuron in culture as visualized by GFP-actin enriched in the spine head is recorded about every 5 sec over a period of about 6 min prior to perfusion with isoflurane. Then the cells are slowly perfused with isoflurane at clinically relevant concentrations in saline. This step is followed by an additional time-lapse recording over about 6 min. Then a morphometric analysis of spine shape is done using the integrated morphometry analysis interface in Metamorph 3.0. In particular, the shape factor calculated from the perimeter and the area of the spine illustrates changes in spine shape.
All reagents for cell culturing are obtained either from Life Technologies, Basel, Switzerland, or from Sigma Chemicals/Fluka Biochemicals, Buchs, Switzerland. […] Neurons are plated onto polylysine treated glass coverslips in Eagle's minimal essential medium supplemented with 10% horse serum. After a 4 hr incubation the coverslips are turned over onto confluent layers of primary astroglial feeder layers in chemically defined Eagle's minimal essential medium with N2 supplement. Over a time period of 3-4 weeks, neurons develop large networks of processes and eventually matured to carry synapses on dendritic spines.
For live imaging, coverslips are mounted in saline in closed observation chambers (Type 1, Life Imaging Services, Olten, Switzerland) and placed at 37° C. on a DM-IRBE inverted fluorescence microscope (Leica, Basel, Switzerland) equipped with high numerical aperture oil lenses and a GFP-optimized filter set (Chroma Technologies, Brattleboro, Vt., USA).
Images are captured using a cooled CCD camera (Princeton Instruments, Trenton, N.J., USA) and MetaMorph Imaging Software version 3.0 (Universal Imaging Corporation, West Chester, Pa., USA). Anaesthetics are diluted from saturated solutions in saline into prewarmed saline immediately prior to slow perfusion into the closed observation chambers at a rate of approx. 0.5 ml/min for a total exchange of 5 ml volume.
For analysis of spine shape over time the integrated morphometric function of MetaMorph 3.0, in particular the shape factor of thresholded objects calculated from their perimeter and their area, is used to log the data for individual images directly to Microsoft Excel 97.

For data set [2] the following is noted: in phosphate-buffered saline; McKenzie et al. 1995; cited from earlier work.
The next data set deals with rats. The note with it: based on minimal alveolar concentration (MAC) in rats; cited from earlier work.
Data set [3] deals with dendritic spine motility in hippocampal neurons expressing GFP-actin. Format: cell-based, rat. Conditions: for effect of NMDA receptor blockade on spine motility: antagonist alone; for influence on the inhibition of motility by AMPA: antagonist present with AMPA. The procedure:
In this example it is shown that dendritic spine motility is inhibited by AMPA. To assess the influence of glutamate receptors on dendritic spine motility video recordings are made during which agonists and antagonists of ionotropic glutamate receptors are transiently applied to hippocampal neurons expressing GFP-actin. For example, such a recording is made from part of the dendrite of a GFP-actin expressing cell in a culture that is exposed to 200 nM AMPA. In initial titration experiments, AMPA is effective at concentrations as low as 50 nM. […] The striking extent of this motility blockade may be illustrated by video data. […] In order to exclude the effect being a consequence of indirect NMDA receptor activation, the experiment may be repeated in presence of the selective NMDA receptor antagonists APV and MK801. Data may be recorded for several spines on a single dendrite segment at high magnification so that the effect of AMPA on individual spines is visible. […] The results for APV are equivalent. Such frames are taken from a longer video recording encompassing a much larger area of this dendrite and several different drug combinations. […]
All reagents for cell culturing are obtained either from Life Technologies, Basel, Switzerland, or from Sigma Chemicals/Fluka Biochemicals, Buchs, Switzerland. Cultures of primary rat hippocampal neurons are established exactly according to Goslin and Banker (Rat hippocampal neurons in low-density culture, in Culturing Nerve Cells (Bradford Book, MIT Press, Cambridge, Mass., 1991) G. Banker and K. Goslin, eds.). Briefly, dissected hippocampi of E19 rat embryos are digested with 0.25% trypsin for 15 min at 37° C. and triturated to yield a single cell suspension using a narrow-bore pasteur pipet. Neurons are plated onto polylysine treated glass coverslips in Eagle's minimal essential medium supplemented with 10% horse serum. After a 4 hr incubation the coverslips are turned over onto confluent layers of primary astroglial feeder layers in chemically defined Eagle's minimal essential medium with N2 supplement. Over a time period of 3-4 weeks, neurons develop large networks of processes and eventually matured to carry synapses on dendritic spines.
For live imaging, coverslips are mounted in saline in closed observation chambers (Type 1, Life Imaging Services, Olten, Switzerland) and placed at 37° C. on a DM-IRBE inverted fluorescence microscope (Leica, Basel, Switzerland) equipped with high numerical aperture oil lenses and a GFP-optimized filter set (Chroma Technologies, Brattleboro, Vt., USA). […]
Drugs are either applied by gravity feed perfusion or by removing the chamber lid and adding the test substance. […] The pH is adjusted to 7.2. [NMDA and AMPA receptor activity is influenced by the extracellular concentration of protons (Kashiwagi et al., 1997; Saybasili et al., 1998; Mc Donald et al., 1998)]

The subject of data set [4] is distribution of GFP-actin fluorescence in hippocampal neurons. Kind of data set: GFP-actin fluorescence intensity in successive video frames. Format: cell-based, rat. The source says:
In this example it is shown that AMPA treatment appears to involve a redistribution of spine actin. A further consistent consequence of treating hippocampal neurons with AMPA is a visible change in the distribution of GFP-actin fluorescence involving an apparent shift toward a concentration in the centre of the spine head. GFP-actin fluorescence intensity may be measured in successive frames of video recordings in which AMPA is transiently present. Measurements are made for a whole dendritic segment and within boxes of the same area placed in the center of spine heads or on the dendritic shaft, respectively. […] This phenomenon could reflect some general aspect of gfp fluorescence in response to an altered ion concentration or pH of the local cytoplasm. Fluorescence excitation of gfp in solution decreases at low pH. Therefore the observed decrease in brightness might be attributed to a lowered pH, mediated by glutamate receptor activation. Application of glutamate or Ca2+ ionophores to rat primary cultured hippocampal neurons is shown to induce a persistent acidosis. To account for this effect, data are normalized for single spines to the overall brightness of the dendrite. The average brightness from the boxes during the recordings for three randomly selected spines may then be evaluated. […] For above mentioned reasons, it is not entirely clear, if the apparent reduction in spine diameter is due to loss of actin fluorescence because of pH shifts or actin concentration in the center of spine heads, but comparison of phase and GFP-actin pictures argue in favour of changes in spine head size. The same caution has to apply to changes in the diameter of the spine neck, which have been postulated to influence synaptic weight by altering the electrical resistance. Those structures are extremely small and for a detailed analysis electronmicroscopic analysis would be favourable.

The subject of a further data set is tadpoles. The note with it: based on EC50 in tadpoles; read-out: Effective conc. for anesthesia; cited from earlier work.
The subject of another data set is rat embryo fibroblasts. Kind of data set: TPA-induced membrane ruffling, rhodamine-phalloidin staining of actin. Format: cell-based. Conditions: pretreatment of cells; 100 nM TPA 15 min. An excerpt: The results of these experiments on neurons pose the question of whether volatile anaesthetics act directly on actin in dendritic spines or indirectly through neurotransmitter receptors, which are also influenced by these agents at clinically relevant concentrations, or some other component of central synapses. To choose between these possibilities the influence of volatile anaesthetics on actin-based motility is examined in fibroblastic cells, where neurotransmitter receptors and other elements of the synaptic machinery are absent. […] Resting layers of rat embryo fibroblasts in saline are treated for 15 min with 100 nM TPA which induces membrane ruffling. Cells are fixed and stained with rhodamine-labelled phalloidin to visualize actin enrichment in ruffles at the edges of the cells. […]
For analysis of the actin cytoskeleton in REF52, cells plated on glass coverlips are serum-starved for several hours prior to the experiment. […] Cells are then fixed with 4% paraformaldehyde (Fluka Biochemicals, Buchs, Switzerland) in phosphate-buffered saline with 0.02% Triton X-100 (Fluka Biochemicals, Buchs, Switzerland) and […] rhodamine-labelled phalloidin F(Sigma Chemicals, Buchs, Switzerland) for 10 min at room temperature, rinsed in phosphate-buffered saline and mounted in Vectashield (Vector Laboratories, Burlingame, Calif., USA) for inspection on the fluorescence microscope.

The subject of the next data set is pure actin. Nature of the data set: pyrene-actin fluorescence assay of actin filament assembly in vitro. The format is biochemical. Conditions: during assembly or added to pre-formed filaments. The procedure:
Since actin-based motility in dendritic spines depends on the actin polymerization cycle the possible influence of isoflurane on actin filament assembly is tested in vitro using a well-established pyrene-actin fluorescence assay.

With `FC(F)OC(F)(F)C(F)Cl` (stereo not shown) [Enflurane], in data set [1], the “Effective conc. for spine motility” value is recorded as 0.30 mM. In addition, the “concentration of saturated solution” value in data set [2] was 11900 µM. Besides, the “Effective conc. for anesthesia” value with rats was 0.64^a mM.
Turning to `C[C@]12N[C@H](Cc3ccccc31)c1ccccc12` [MK801], in data set [3], the “effect of NMDA receptor blockade on spine motility” value is on record as “does not inhibit spine motility” and the “influence on the inhibition of motility by AMPA” value is “does not influence”.
`Cc1onc(O)c1CC(N)C(=O)O` (stereo not drawn) [AMPA, α-amino-3-hydroxy-5-methylisoxazole-4-propionic acid]: in data set [3] (50 nM to 200 nM), the “dendritic varicosities associated with subsequent cell death” value is on record as “do not produce dendritic varicosities” and the “reversibility of effect on spine motility” value is on record as “reversible”. Besides, in data set [3] (200 nM AMPA present), the spine movement entry is listed as “spine movement effectively ceases”. The “lowest effective concentration on spine motility” value in data set [3] (initial titration experiments) turned out to be 50 nM. Further, the “GFP-actin fluorescence intensity over the whole dendrite” value in data set [4] (after application of AMPA) is on record as “decrease in intensity”. Further, the “average brightness of the dendritic shaft” value in data set [4] (normalized to overall brightness of the dendrite) was “reduced”. For the same compound, in data set [4] (three randomly selected spines, normalized to overall brightness of the dendrite), the “GFP-actin fluorescence intensity in the centre of spine heads” value was “marked increase”.
Take `ClC(Cl)Cl` [Chloroform]: in data set [1], the “Effective conc. for spine motility” value was 1.33 mM, the “effect on spine shape change / spine motility in presence of the anaesthetic” value is “variation in spine shape is minimal” and the “spine motility after the anaesthetic is removed” value is listed as “rapid changes in spine shape are resumed”. In addition, in data set [2], the “concentration of saturated solution” value was 66000 µM. Further, in the data set on tadpoles, the EC50 was 1.3 mM.
For the compound `COC(F)(F)C(Cl)Cl` [methoxyflurane, Methoxyflurane], the “concentration of saturated solution” value in data set [2] is 9100 µM.
For `N[C@@H](CCCP(=O)(O)O)C(=O)O` [APV], in data set [3], the “effect of NMDA receptor blockade on spine motility” value is “equivalent” and the “influence on the inhibition of motility by AMPA” value was “equivalent”.
In the case of `Cc1onc(OCC(=O)O)c1CC(N)C(=O)O` (stereo not shown) [AMOA, 2-amino-3-[3-(carboxymethoxy)-5-methyl-isoxazol-4-yl]propionic acid], the “block of the effect of AMPA on spine motility” value in data set [3] (AMPA receptor antagonist applied with AMPA) is on record as “entirely blocked”.
Turning to `C=C(C)[C@H]1CN[C@H](C(=O)O)[C@H]1CC(=O)O` [Kainate], in data set [3], the “mimics the effect of AMPA on spine motility” value is on record as “mimicked”.
For the compound `CCOCC` [Diethylether, diethylether], the “Effective conc. for spine motility” value in data set [1] was 20.4 mM. In addition, the “concentration of saturated solution” value in data set [2] is 816000 µM. Moreover, the EC50 with tadpoles is 25 mM.
Turning to `FC(F)OC(Cl)C(F)(F)F` (stereo not shown) [Isoflurane], in data set [1], the “Effective conc. for spine motility” value is reported as 0.30 mM, the “effect on spine shape change / spine motility in presence of the anaesthetic” value is “it remains constant” and the “spine motility after the anaesthetic is removed” value was “recovery of motility”. Moreover, in data set [1] (dilution of 1:50 of saturated solution), the spine motility result is “fully inhibited”. In data set [1] (dilution of 1:60 of saturated solution), the spine motility result is “fully motile”. Besides, the spine motility result in data set [1] (dilution of 1:100 of saturated solution) is listed as “fully motile”. Besides, the “concentration of saturated solution” value in data set [2] is 15300 µM. Moreover, in the data set with rat embryo fibroblasts, the TPA-induced actin ruffles entry is “prevents TPA-induced actin ruffles”. Besides, the “Effective conc. for anesthesia” value with rats is given as 0.31^a mM. The “effect on polymerization state of pure actin” value in the data set on pure actin is “no detectable effect”.
As for `FC(F)(F)C(Cl)Br` (stereo not shown) [Halothane], the “Effective conc. for spine motility” value in data set [1] is on record as 0.23 mM. In addition, the “Effective conc. for anesthesia” value in the data set with rats is on record as 0.27^a mM.
